Test results reported in patent publication US20230293526A1, “METHOD FOR TREATING CANCER WITH A REVERSE TRANSCRIPTASE INHIBITOR” (PrimeFour Therapeutics, Inc., priority 2020, published 2023).

Legend:
Experiment in all cases: Cell proliferation Ex.3
Type in all cases: cell-based
786O = details: Homo sapiens
Method: (§1) A dose response relationship on cell proliferation was assessed for Compound 13 on 140 tumor cell lines. […] Cells were cultured in the appropriate media. For the assays, cells were seeded in white cell culture-treated flat and clear bottom multiwell plates and incubated at 37° C. overnight before compound was added. […] on the medium, cell plates were equilibrated to room temperature for one hour, CellTiterGlo reagent (Promega) was added and luminescence was measured approximately an hour later using a luminometer. Raw data were converted into percent cell viability relative to the high and low control, which were set to 10000 and 000, respectively.

A375 = details: Homo sapiens, A-375
Method: as §1

A431 = details: Homo sapiens, A-431
Method: as §1

BXPC3 = details: Homo sapiens, BXPC-3
Method: as §1

C33A = details: Homo sapiens, C-33-A
Method: as §1

CALU6 = details: Homo sapiens, Calu-6
Method: as §1

DU145 = details: Homo sapiens, DU-145
Method: as §1

HS578T = details: Homo sapiens, Hs-578T
Method: as §1

HT29 = details: Homo sapiens, HT-29
Method: as §1

HeLa = details: Homo sapiens
Method: as §1

JEG3 = details: Homo sapiens, JEG-3
Method: as §1

JIMT1 = details: Homo sapiens, JIMT-1
Method: as §1

MDAMB435 = details: Homo sapiens, MDA-MB-435
Method: as §1

MT3 = details: MT-3
Method: as §1

OVCAR3 = details: Homo sapiens, OVCAR-3
Method: as §1

PANC1005 = details: Homo sapiens
Method: as §1

RDES = details: RD-ES
Method: as §1

SAOS2 = details: Homo sapiens, SAOS-2
Method: as §1

SKBR3 = details: Homo sapiens, SK-BR-3
Method: as §1

SU-DHL-10 = details: Homo sapiens, SU-DHL10
Method: as §1

SU-DHL-6 = details: Homo sapiens
Method: as §1

THP-1 = details: Homo sapiens
Method: as §1

U2OS = details: Homo sapiens
Method: as §1

UMUC3 = details: Homo sapiens
Method: as §1

UO31 = details: Homo sapiens, UO-31
Method: as §1

WSU-NHL = details: Homo sapiens
Method: as §1

Measured: IC50

C#C[C@]1(CO)O[C@@H](n2cc(F)c(N)nc2=O)C[C@@H]1O [compound 9]
> 10 µM: 786O; 786-0, 72 h | 786O; 786-0, 120 h | 786O; 786-0, 168 h | A375; A375, 72 h | A375; A375, 120 h | A375; A375, 168 h | A431; A431, 72 h | BXPC3; BXPC3, 72 h | C33A; 72 h | CALU6; CALU6, 72 h | CALU6; CALU6, 120 h | CALU6; CALU6, 168 h | DU145; DU145, 72 h | DU145; DU145, 120 h | DU145; DU145, 168 h | HS578T; 72 h | HS578T; 120 h | HS578T; 168 h | HT29; HT29, 72 h | HT29; HT29, 120 h | HT29; HT29, 168 h | HeLa; 72 h | HeLa; 120 h | HeLa; 168 h | JEG3; JEG3, 72 h | JEG3; JEG3, 120 h | JEG3; JEG3, 168 h | JIMT1; JIMT1, 72 h | JIMT1; JIMT1, 120 h | JIMT1; JIMT1, 168 h | MDAMB435; MDAMB435, 72 h | MDAMB435; MDAMB435, 120 h | MDAMB435; MDAMB435, 168 h | MT3; MT3, 72 h | MT3; MT3, 168 h | OVCAR3; OVCAR3, 72 h | OVCAR3; OVCAR3, 120 h | OVCAR3; OVCAR3, 168 h | PANC1005; Panc1005, 72 h | PANC1005; Panc1005, 120 h | PANC1005; Panc1005, 168 h | RDES; 72 h | RDES; 120 h | RDES; 168 h | SAOS2; SAOS2, 72 h | SAOS2; SAOS2, 120 h | SAOS2; SAOS2, 168 h | SU-DHL-6; SU-DHL-6, 72 h | THP-1; THP-1, 72 h | THP-1; THP-1, 120 h | THP-1; THP-1, 168 h | U2OS; 72 h | U2OS; 120 h | U2OS; 168 h | UMUC3; UMUC3, 72 h | UMUC3; UMUC3, 120 h | UMUC3; UMUC3, 168 h | UO31; UO31, 72 h | UO31; UO31, 120 h | UO31; UO31, 168 h
1.3 µM: SU-DHL-6; SU-DHL-6, 168 h
1.45 µM: SKBR3; SKBR3, 72 h
3.07 µM: C33A; 168 h
0.96 µM: SKBR3; SKBR3, 120 h
0.87 µM: WSU-NHL; 168 h
0.42 µM: WSU-NHL; 120 h
3.18 µM: A431; A431, 120 h
1.42 µM: A431; A431, 168 h
61.5 µM: SU-DHL-10; SU-DHL-10, 120 h
0.59 µM: BXPC3; BXPC3, 168 h
2.93 µM: C33A; 120 h
4.99 µM: SU-DHL-6; SU-DHL-6, 120 h
3.86 µM: SU-DHL-10; SU-DHL-10, 168 h
1.29 µM: BXPC3; BXPC3, 120 h
3.01 µM: WSU-NHL; 72 h
0.14 µM: SU-DHL-10; SU-DHL-10, 72 h
0.37 µM: SKBR3; SKBR3, 168 h
3.04 µM: MT3; MT3, 120 h
